In ChEMBL document CHEMBL2177026, “Acyl guanidine inhibitors of β-secretase (BACE-1): optimization of a micromolar hit to a nanomolar lead via iterative solid- and solution-phase library synthesis” (J Med Chem, 2012):
Activity calls are given as the source filed them. The rule behind the calls is not given here.

Columns and labels:
[1] = Inhibition of pepsin by radioligand binding assay
[2] = target: T1, Cathepsin E (Homo sapiens) (UniProt P14091); assay: Inhibition of cathepsin E by radioligand binding assay
T1 sequence (whole entry): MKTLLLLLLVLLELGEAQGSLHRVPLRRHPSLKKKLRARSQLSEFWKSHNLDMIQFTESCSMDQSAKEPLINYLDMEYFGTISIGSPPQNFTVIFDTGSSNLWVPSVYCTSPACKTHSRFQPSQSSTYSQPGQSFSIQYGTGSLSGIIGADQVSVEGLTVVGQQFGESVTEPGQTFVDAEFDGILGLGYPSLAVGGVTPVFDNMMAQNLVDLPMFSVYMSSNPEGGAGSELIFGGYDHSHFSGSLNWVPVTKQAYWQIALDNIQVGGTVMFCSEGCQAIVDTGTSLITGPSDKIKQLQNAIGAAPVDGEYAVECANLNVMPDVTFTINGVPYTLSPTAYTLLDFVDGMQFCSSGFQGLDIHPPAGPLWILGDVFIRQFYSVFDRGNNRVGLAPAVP

[3] = target: Cathepsin D (Homo sapiens) (UniProt P07339); assay: Inhibition of cathepsin D by radioligand binding assay
Chain of Cathepsin D (Homo sapiens) (P07339 65-162 limits assumed): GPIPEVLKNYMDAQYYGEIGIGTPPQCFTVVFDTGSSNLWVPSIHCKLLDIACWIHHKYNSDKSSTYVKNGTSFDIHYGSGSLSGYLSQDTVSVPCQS
Chain of Cathepsin D (Homo sapiens) (P07339 169-412 limits assumed): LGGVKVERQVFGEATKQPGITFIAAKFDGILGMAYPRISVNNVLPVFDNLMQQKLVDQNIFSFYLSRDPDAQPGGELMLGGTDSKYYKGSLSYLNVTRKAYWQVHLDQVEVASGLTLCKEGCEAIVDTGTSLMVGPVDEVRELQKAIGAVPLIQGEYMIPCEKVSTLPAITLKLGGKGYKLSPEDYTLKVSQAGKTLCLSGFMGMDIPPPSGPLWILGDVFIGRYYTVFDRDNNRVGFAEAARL

Beta-secretase 1 [4] = target: T2, Beta-secretase 1 (Homo sapiens, UniProt P56817); assay: Ratio of IC50 for BACE1 in human KBV1 cells expressing APP 751 Swedish mutant in absence of tariquidar to IC50 for BACE1 in human KBV1 cells expressing APP 751 Swedish mutant in presence of tariquidar; type: cell-based
T2 sequence (P56817 whole entry): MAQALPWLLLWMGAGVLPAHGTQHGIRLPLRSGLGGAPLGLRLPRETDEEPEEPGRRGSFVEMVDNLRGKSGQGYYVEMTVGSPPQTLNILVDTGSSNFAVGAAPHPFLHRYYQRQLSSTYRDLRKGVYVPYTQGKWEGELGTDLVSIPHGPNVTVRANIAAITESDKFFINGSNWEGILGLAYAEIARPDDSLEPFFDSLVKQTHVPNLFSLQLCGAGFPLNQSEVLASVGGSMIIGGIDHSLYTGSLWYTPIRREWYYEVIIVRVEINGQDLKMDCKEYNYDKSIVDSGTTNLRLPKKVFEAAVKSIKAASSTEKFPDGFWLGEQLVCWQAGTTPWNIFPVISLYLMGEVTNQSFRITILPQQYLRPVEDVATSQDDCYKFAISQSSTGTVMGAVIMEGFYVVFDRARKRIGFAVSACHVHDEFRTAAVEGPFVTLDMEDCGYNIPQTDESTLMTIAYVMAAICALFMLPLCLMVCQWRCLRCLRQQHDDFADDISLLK

Beta-secretase 1 [5] = target: T2, Beta-secretase 1; assay: Inhibition of BACE1 in human KBV1 cells expressing APP 751 Swedish mutant assessed as inhibition of amyloid beta (1 to 40) production after overnight incubation by ELISA in presence of tariquidar; type: cell-based
Beta-secretase 1 [6] = target: T2, Beta-secretase 1; assay: Inhibition of BACE1 in human KBV1 cells expressing APP 751 Swedish mutant assessed as inhibition of amyloid beta (1 to 40) production after overnight incubation by ELISA in absence of tariquidar; type: cell-based
[7] = Drug uptake in rat CSF at 40 mg/kg, sc preadministered with ABT measured after 5 hrs by LC/MS/MS analysis; type: ADME, organism-based, Cerebrospinal fluid; parameters: dose 40 mg/kg, route subcutaneous; settings: read-out: Drug uptake
[8] = Drug uptake in rat CSF at 15 mg/kg, sc after 5 hrs by LC/MS/MS analysis; type: ADME, organism-based, Cerebrospinal fluid; parameters: dose 15 mg/kg, route subcutaneous; settings: read-out: Drug uptake
[9] = Drug uptake in rat CSF at 5 mg/kg, sc measured after 5 hrs by LC/MS/MS analysis; type: ADME, organism-based, Cerebrospinal fluid; parameters: dose 5 mg/kg, route subcutaneous; settings: read-out: Drug uptake
[10] = Drug uptake in rat brain at 40 mg/kg, sc preadministered with ABT measured after 5 hrs by LC/MS/MS analysis; type: ADME, organism-based; parameters: dose 40 mg/kg, route subcutaneous; settings: read-out: Drug uptake
[11] = Drug uptake in rat brain at 15 mg/kg, sc after 5 hrs by LC/MS/MS analysis; type: ADME, organism-based; parameters: dose 15 mg/kg, route subcutaneous; settings: read-out: Drug uptake
[12] = Drug uptake in rat brain at 5 mg/kg, sc measured after 5 hrs by LC/MS/MS analysis; type: ADME, organism-based; parameters: dose 5 mg/kg, route subcutaneous; settings: read-out: Drug uptake
[13] = Plasma concentration in rat at 40 mg/kg, sc preadministered with ABT measured after 5 hrs by LC/MS/MS analysis; type: ADME, organism-based; parameters: dose 40 mg/kg, route subcutaneous
[14] = Plasma concentration in rat at 5 mg/kg, sc measured after 5 hrs by LC/MS/MS analysis; type: ADME, organism-based; parameters: dose 5 mg/kg, route subcutaneous
[15] = Plasma concentration in rat at 15 mg/kg, sc after 5 hrs by LC/MS/MS analysis; type: ADME, organism-based; parameters: dose 15 mg/kg, route subcutaneous
Rattus norvegicus [16] = assay: Antialzheimer activity in rat assessed as amyloid beta (1 to 40) level in CSF at 40 mg/kg, sc preadministered with ABT measured after 5 hrs by ELISA relative to control; type: functional; settings: route subcutaneous
Rattus norvegicus [17] = assay: Antialzheimer activity in rat assessed as amyloid beta (1 to 40) level in CSF at 15 mg/kg, sc measured after 5 hrs by ELISA relative to control; type: functional; settings: route subcutaneous
Rattus norvegicus [18] = assay: Antialzheimer activity in rat assessed as amyloid beta (1 to 40) level in CSF at 5 mg/kg, sc measured after 5 hrs by ELISA relative to control; type: functional; settings: route subcutaneous
Rattus norvegicus [19] = assay: Antialzheimer activity in rat assessed as amyloid beta (1 to 40) level in brain at 40 mg/kg, sc preadministered with ABT measured after 5 hrs by ELISA relative to control; type: functional; settings: route subcutaneous
Rattus norvegicus [20] = assay: Antialzheimer activity in rat assessed as amyloid beta (1 to 40) level in brain at 15 mg/kg, sc measured after 5 hrs by ELISA relative to control; type: functional; settings: route subcutaneous
Rattus norvegicus [21] = assay: Antialzheimer activity in sc dosed rat assessed as reduction in amyloid beta (1 to 40) level in plasma measured after 5 hrs by ELISA relative to control; type: functional, organism-based
Rattus norvegicus [22] = assay: Antialzheimer activity in rat assessed as amyloid beta (1 to 40) level in brain at 5 mg/kg, sc measured after 5 hrs by ELISA relative to control; type: functional; settings: route subcutaneous
Rattus norvegicus [23] = assay: Antialzheimer activity in rat assessed as amyloid beta (1 to 40) level in plasma at 40 mg/kg, sc preadministered with ABT measured after 5 hrs by ELISA relative to control; type: functional; settings: route subcutaneous
Rattus norvegicus [24] = assay: Antialzheimer activity in rat assessed as amyloid beta (1 to 40) level in plasma at 15 mg/kg, sc measured after 5 hrs by ELISA relative to control; type: functional; settings: route subcutaneous
Rattus norvegicus [25] = assay: Antialzheimer activity in rat assessed as amyloid beta (1 to 40) level in plasma at 5 mg/kg, sc measured after 5 hrs by ELISA relative to control; type: functional; settings: route subcutaneous
[26] = target: Voltage-gated inwardly rectifying potassium channel KCNH2 (Homo sapiens, UniProt Q12809); assay: Activity at human ERG channel by fluorescence-based thallium flux assay
Chain of Voltage-gated inwardly rectifying potassium channel KCNH2 (Q12809 whole entry): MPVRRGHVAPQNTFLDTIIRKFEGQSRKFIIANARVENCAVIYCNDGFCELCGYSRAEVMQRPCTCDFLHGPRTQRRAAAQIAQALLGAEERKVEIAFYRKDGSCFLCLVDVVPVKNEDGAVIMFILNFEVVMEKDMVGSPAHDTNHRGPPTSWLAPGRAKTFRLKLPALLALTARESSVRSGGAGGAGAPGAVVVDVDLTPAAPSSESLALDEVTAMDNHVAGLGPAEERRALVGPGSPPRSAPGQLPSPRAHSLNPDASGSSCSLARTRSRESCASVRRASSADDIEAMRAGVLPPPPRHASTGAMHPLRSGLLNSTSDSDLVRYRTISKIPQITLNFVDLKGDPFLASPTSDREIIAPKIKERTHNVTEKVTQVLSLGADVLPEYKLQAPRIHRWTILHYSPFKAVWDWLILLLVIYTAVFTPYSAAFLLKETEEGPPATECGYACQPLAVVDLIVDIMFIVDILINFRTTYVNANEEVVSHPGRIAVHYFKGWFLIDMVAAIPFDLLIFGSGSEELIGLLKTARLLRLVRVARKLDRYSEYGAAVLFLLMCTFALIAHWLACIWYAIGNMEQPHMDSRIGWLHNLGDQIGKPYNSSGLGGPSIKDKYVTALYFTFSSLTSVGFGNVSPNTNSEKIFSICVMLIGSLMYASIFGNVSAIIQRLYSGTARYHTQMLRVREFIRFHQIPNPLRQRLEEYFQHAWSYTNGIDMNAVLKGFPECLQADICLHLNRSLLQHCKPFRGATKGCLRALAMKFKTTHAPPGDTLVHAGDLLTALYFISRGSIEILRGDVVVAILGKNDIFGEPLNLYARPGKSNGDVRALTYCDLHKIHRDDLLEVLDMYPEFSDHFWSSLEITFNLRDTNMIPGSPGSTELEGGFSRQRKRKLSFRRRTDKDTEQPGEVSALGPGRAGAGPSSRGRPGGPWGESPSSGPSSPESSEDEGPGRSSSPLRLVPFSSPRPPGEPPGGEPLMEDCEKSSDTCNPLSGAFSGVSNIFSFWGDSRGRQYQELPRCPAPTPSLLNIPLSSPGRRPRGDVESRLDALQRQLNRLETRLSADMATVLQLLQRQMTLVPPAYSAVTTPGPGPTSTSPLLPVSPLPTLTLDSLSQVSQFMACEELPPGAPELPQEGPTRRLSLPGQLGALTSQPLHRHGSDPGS

Beta-secretase 1 [27] = target: T2, Beta-secretase 1; assay: Ratio of IC50 for BACE1 in HEK293 cells expressing APP 695 Swedish mutant to Ki for BACE1; type: cell-based
Beta-secretase 1 [28] = target: T2, Beta-secretase 1; assay: Inhibition of BACE1 in human HEK293 cells expressing APP 695 Swedish mutant assessed as inhibition of amyloid beta (1 to 40) production after overnight incubation by ELISA; type: cell-based
Beta-secretase 1 [29] = target: T2, Beta-secretase 1; assay: Displacement of [3H]BMS-599240 from BACE1 expressed in HEK293 cells; type: cell-based

- inhibition [1]: inactive
- inhibition [2]: inactive
- inhibition [3]: inactive
- Ratio IC50 (Beta-secretase 1 [4]): 36
- IC50 (Beta-secretase 1 [5]): 5 nM
- IC50 (Beta-secretase 1 [6]): 180 nM
- concentration at 5 h [7]: 39 nM
- concentration at 5 h [8]: 8 nM
- concentration at 5 h [9]: 4 nM
- concentration at 5 h [10]: 586 nM
- concentration at 5 h [11]: 320 nM
- concentration at 5 h [12]: 89 nM
- concentration at 5 h [13]: 6.64 µM
- concentration at 5 h [14]: 378 nM
- concentration at 5 h [15]: 1170 nM
- Ratio (Beta-secretase 1 [27]): 1
- IC50 (Beta-secretase 1 [28]): 5 nM
- Ki (Beta-secretase 1 [29]): 5 nM
Compound: COc1ccc(-c2nsc(C)c2C(=O)/N=C(\N)NCc2cc(C)c(NC(=O)CN3CCC3)c(Cl)c2)cc1
- Activity (Rattus norvegicus [16]): 82%
- Activity (Rattus norvegicus [17]): 98%
- Activity (Rattus norvegicus [18]): 105%
- Activity (Rattus norvegicus [19]): 94%
- Activity (Rattus norvegicus [20]): 102%
- Activity (Rattus norvegicus [21]): Dose-dependent effect
- Activity (Rattus norvegicus [22]): 89%
- Activity (Rattus norvegicus [23]): 4%
- Activity (Rattus norvegicus [24]): 8%
- Activity (Rattus norvegicus [25]): 18%
- Activity [26]: Not Active
